Data as given in patent US11214594B2, “Antimicrobial peptide having synergistic antibacterial effect with antibiotics on multidrug resistant bacteria, and use thereof” (priority 2016, dated 2022).
Values after ≈ are worked out from the molar mass of the structure shown. Read-outs that look alike come from different tables or passages of the source. Where a SMILES comes first, the peptide text is derived from it. [ ]: non-standard residue; d: D form.

Legend:
S. typhimurium = assay: microbe, parasite or virus in culture; type: cell-based, Salmonella typhimurium
In short: (§1)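 MIC read-out = lowest peptide level with no bacterial proliferation. Strains diluted in MH medium to 2×10^6 CFU; peptide twofold serial dilutions in MH added 1:1 in microtiter wells.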

A. baumannii [1] = assay: microbe, parasite or virus in culture; type: cell-based, Acinetobacter baumannii; settings: for Antibacterial activity relative to PapMA-1: A. baumannii and S. typhimurium
In short: as §1

MDRAB 12035 [2] = assay: microbe, parasite or virus in culture; type: cell-based, Acinetobacter baumannii
In short: as §1

[3] = tested on: multi-drug resistant bacteria; assay: MIC, summary statements for multi-drug resistant bacteria; type: cell-based
Description: For the antibacterial activity, a minimal inhibitory concentration (MIC) of a peptide in which fungus bodies were not split in an MH medium with sufficient nutrients was measured.
Specifically, the strains described in the following [Table 2] were purchased and diluted with an MH medium such that the number of bacteria was 2×10^6 colony-forming units (CFUs), 100 μl of each of the diluted strains was aliquoted into a 96-well microtiter plate, and then 100 μl of a peptide solution diluted with the MH medium (solution diluted stepwise at 2: 1) was added to each well.

MDRST 8009 = type: cell-based, Salmonella typhimurium; settings: agent alone
In short: as §1

E. coli = type: cell-based, Escherichia coli; settings: E. coli
In short: (§2)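 Strains in MH medium at 2×10^6 CFU/ml were mixed with peptide diluted stepwise (2:1) from its MIC, then antibiotic dilutions in MH medium were added to give the antibiotic MIC. The reversed set-up, peptide titrated against fixed antibiotic, gave the peptide MIC.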

MDREC 1229 = type: cell-based, Escherichia coli
In short: as §2

A. baumannii [4] = assay: MIC of antimicrobial peptide during combined treatment with antibiotic; type: cell-based, Acinetobacter baumannii
In short: as §2

MDRAB 12035 [5] = assay: as above; type: cell-based, Acinetobacter baumannii
In short: as §2

MDRAB 12036 = type: cell-based, Acinetobacter baumannii
In short: as §1

[6] = with Erythromycin […] (Conc./MIC 1)
[7] = with Linezolid […] (Conc./MIC 1)
[8] = with Vancomycin 1024 μg/ml (Conc./MIC 1)
[9] = erythromycin 32 μg/ml (Conc./MIC 1/8)
[10] = erythromycin 64 μg/ml (Conc./MIC 1/4)
[11] = erythromycin […] (Conc./MIC 1/2)
[12] = linezolid 64 μg/ml (Conc./MIC 1/8)
[13] = linezolid 512 μg/ml (Conc./MIC 1)
[14] = vancomycin 512 μg/ml (Conc./MIC 1/2)
[15] = vancomycin 1024 μg/ml (Conc./MIC 1)
[16] = erythromycin 4 μg/ml (Conc./MIC 1/8)
[17] = erythromycin 8 μg/ml (Conc./MIC 1/4)
[18] = erythromycin 16 μg/ml (Conc./MIC 1/2)
[19] = erythromycin 32 μg/ml (Conc./MIC 1)
[20] = linezolid 32 μg/ml (Conc./MIC 1/8)
[21] = linezolid 64 μg/ml (Conc./MIC 1/4)

## CC[C@H](C)[C@H](NC(=O)[C@H](CCCCN)NC(=O)[C@H](Cc1c[nH]c2ccccc12)NC(=O)[C@@H](N)CCCNC(=N)N)C(=O)N[C@@H](Cc1ccccc1)C(=O)N[C@@H](CCCCN)C(=O)N[C@@H](CCCCN)C(=O)N[C@H](C(=O)N1CCC[C@H]1C(=O)N[C@@H](CCCCN)C(=O)N[C@@H](Cc1ccccc1)C(=O)N[C@@H](CC(C)C)C(=O)N[C@@H](Cc1c[nH]cn1)C(=O)N[C@@H](CCC(=O)O)C(=O)N[C@@H](C)C(=O)N[C@@H](CCCCN)C(=O)N[C@@H](CCCCN)C(=O)N[C@@H](Cc1c[nH]c2ccccc12)C(N)=O)[C@@H](C)CC [PapMA-14, RWK IFK KIP KFL HEA KKW-NH2] (H-RWKIFKKIPKFLHEAKKW-NH2; N-terminus assumed)
S. typhimurium
  Minimal inhibitory concentration MIC: 16 µg/mL (≈ 6.71 µM)
A. baumannii [1]
  Minimal inhibitory concentration MIC: 16 µg/mL (≈ 6.71 µM)
  Peptide MIC, peptide alone: 16 µg/mL
  Antibacterial activity relative to PapMA-1: at least twice as high
MDRAB 12035 [2]
  Minimal inhibitory concentration MIC: 16 µg/mL (≈ 6.71 µM)
  Peptide MIC, peptide alone: 16 µg/mL
[3]
  Antibacterial activity relative to PapMA-1: twice to four times higher
MDRST 8009
  Minimal inhibitory concentration MIC: 32 µg/mL (≈ 13.4 µM)
E. coli; [6]
  Peptide MIC: 0 µg/mL
E. coli; [7]
  Peptide MIC: 0 µg/mL
E. coli; [8]
  Peptide MIC: 0 µg/mL
MDREC 1229; [9]
  Peptide MIC during treatment with antibiotic: 2 µg/mL
MDREC 1229; [10]
  Peptide MIC during treatment with antibiotic: 2 µg/mL
MDREC 1229; erythromycin […] (Conc./MIC 1)
  Peptide MIC during treatment with antibiotic: 0 µg/mL
MDREC 1229; [11]
  Peptide MIC during treatment with antibiotic: 1 µg/mL
MDREC 1229; [12]
  Peptide MIC during treatment with antibiotic: 4 µg/mL
MDREC 1229; [13]
  Peptide MIC during treatment with antibiotic: 0 µg/mL
MDREC 1229; linezolid […] (Conc./MIC 1/2)
  Peptide MIC during treatment with antibiotic: 1 µg/mL
MDREC 1229; linezolid […] (Conc./MIC 1/4)
  Peptide MIC during treatment with antibiotic: 2 µg/mL
MDREC 1229; [14]
  Peptide MIC during treatment with antibiotic: 2 µg/mL
MDREC 1229; [15]
  Peptide MIC during treatment with antibiotic: 1 µg/mL
MDREC 1229; vancomycin […] (Conc./MIC 1/4)
  Peptide MIC during treatment with antibiotic: 4 µg/mL
MDREC 1229; vancomycin […] (Conc./MIC 1/8)
  Peptide MIC during treatment with antibiotic: 4 µg/mL
A. baumannii [4]; [16]
  Peptide MIC during treatment with antibiotic: 4 µg/mL
A. baumannii [4]; [17]
  Peptide MIC during treatment with antibiotic: 2 µg/mL
A. baumannii [4]; [18]
  Peptide MIC during treatment with antibiotic: 1 µg/mL
A. baumannii [4]; [19]
  Peptide MIC during treatment with antibiotic: 0 µg/mL
A. baumannii [4]; [20]
  Peptide MIC during treatment with antibiotic: 2 µg/mL
A. baumannii [4]; [21]
  Peptide MIC during treatment with antibiotic: 2 µg/mL
A. baumannii [4]; linezolid […] (Conc./MIC 1)
  Peptide MIC during treatment with antibiotic: 0 µg/mL
A. baumannii [4]; linezolid […] (Conc./MIC 1/2)
  Peptide MIC during treatment with antibiotic: 1 µg/mL
A. baumannii [4]; [14]
  Peptide MIC during treatment with antibiotic: 0.25 µg/mL
A. baumannii [4]; [15]
  Peptide MIC during treatment with antibiotic: 0 µg/mL
A. baumannii [4]; vancomycin […] (Conc./MIC 1/4)
  Peptide MIC during treatment with antibiotic: 0.5 µg/mL
A. baumannii [4]; vancomycin […] (Conc./MIC 1/8)
  Peptide MIC during treatment with antibiotic: 2 µg/mL
MDRAB 12035 [5]; [16]
  Peptide MIC during treatment with erythromycin: 4 µg/mL
MDRAB 12035 [5]; [17]
  Peptide MIC during treatment with erythromycin: 2 µg/mL
MDRAB 12035 [5]; [18]
  Peptide MIC during treatment with erythromycin: 1 µg/mL
MDRAB 12035 [5]; [19]
  Peptide MIC during treatment with erythromycin: 0 µg/mL
MDRAB 12035 [5]; [12]
  Peptide MIC during treatment with linezolid: 2 µg/mL
MDRAB 12035 [5]; [13]
  Peptide MIC during treatment with linezolid: 0 µg/mL
MDRAB 12035 [5]; linezolid […] (Conc./MIC 1/2)
  Peptide MIC during treatment with linezolid: 1 µg/mL
MDRAB 12035 [5]; linezolid […] (Conc./MIC 1/4)
  Peptide MIC during treatment with linezolid: 1 µg/mL
MDRAB 12035 [5]; [14]
  Peptide MIC during treatment with vancomycin: 1 µg/mL
MDRAB 12035 [5]; [15]
  Peptide MIC during treatment with vancomycin: 1 µg/mL
MDRAB 12035 [5]; vancomycin […] (Conc./MIC 1/4)
  Peptide MIC during treatment with vancomycin: 2 µg/mL
MDRAB 12035 [5]; vancomycin […] (Conc./MIC 1/8)
  Peptide MIC during treatment with vancomycin: 2 µg/mL
MDRAB 12036
  Minimal inhibitory concentration MIC: 16 µg/mL (≈ 6.71 µM)

## CC[C@H](C)[C@H](NC(=O)[C@H](CCCCN)NC(=O)[C@H](Cc1c[nH]c2ccccc12)NC(=O)[C@@H](N)CCCNC(=N)N)C(=O)N[C@@H](Cc1ccccc1)C(=O)N[C@@H](CCCCN)C(=O)N[C@@H](CCCCN)C(=O)N[C@H](C(=O)N[C@H](CCCCN)C(=O)N[C@@H](CCCCN)C(=O)N[C@@H](CC(C)C)C(=O)N[C@@H](CC(C)C)C(=O)N[C@@H](Cc1c[nH]cn1)C(=O)N[C@@H](CO)C(=O)N[C@@H](Cc1ccccc1)C(=O)N[C@@H](CCCCN)C(=O)N[C@@H](CCCCN)C(=O)N[C@@H](Cc1ccccc1)C(N)=O)[C@@H](C)CC [PapMA-15, RWK IFK KIk KLL HSF KKF-NH2] (H-RWKIFKKI[dK]KLLHSFKKF-NH2; N-terminus assumed)
S. typhimurium
  Minimal inhibitory concentration MIC: 32 µg/mL (≈ 13.5 µM)
A. baumannii [1]
  Minimal inhibitory concentration MIC: 32 µg/mL (≈ 13.5 µM)
  Peptide MIC, peptide alone: 32 µg/mL
  Antibacterial activity relative to PapMA-1: at least twice as high
MDRAB 12035 [2]
  Minimal inhibitory concentration MIC: 32 µg/mL (≈ 13.5 µM)
  Peptide MIC, peptide alone: 32 µg/mL
[3]
  Antibacterial activity relative to PapMA-1: twice to four times higher
MDRST 8009
  Minimal inhibitory concentration MIC: 64 µg/mL (≈ 26.9 µM)
E. coli; [6]
  Peptide MIC: 0 µg/mL
E. coli; [7]
  Peptide MIC: 0 µg/mL
E. coli; [8]
  Peptide MIC: 0 µg/mL
MDREC 1229; [9]
  Peptide MIC during treatment with antibiotic: 2 µg/mL
MDREC 1229; [10]
  Peptide MIC during treatment with antibiotic: 2 µg/mL
MDREC 1229; erythromycin […] (Conc./MIC 1)
  Peptide MIC during treatment with antibiotic: 0 µg/mL
MDREC 1229; [11]
  Peptide MIC during treatment with antibiotic: 2 µg/mL
MDREC 1229; [12]
  Peptide MIC during treatment with antibiotic: 4 µg/mL
MDREC 1229; [13]
  Peptide MIC during treatment with antibiotic: 0 µg/mL
MDREC 1229; linezolid […] (Conc./MIC 1/2)
  Peptide MIC during treatment with antibiotic: 1 µg/mL
MDREC 1229; linezolid […] (Conc./MIC 1/4)
  Peptide MIC during treatment with antibiotic: 2 µg/mL
MDREC 1229; [14]
  Peptide MIC during treatment with antibiotic: 2 µg/mL
MDREC 1229; [15]
  Peptide MIC during treatment with antibiotic: 1 µg/mL
MDREC 1229; vancomycin […] (Conc./MIC 1/4)
  Peptide MIC during treatment with antibiotic: 4 µg/mL
MDREC 1229; vancomycin […] (Conc./MIC 1/8)
  Peptide MIC during treatment with antibiotic: 8 µg/mL
A. baumannii [4]; [16]
  Peptide MIC during treatment with antibiotic: 4 µg/mL
A. baumannii [4]; [17]
  Peptide MIC during treatment with antibiotic: 4 µg/mL
A. baumannii [4]; [18]
  Peptide MIC during treatment with antibiotic: 4 µg/mL
A. baumannii [4]; [19]
  Peptide MIC during treatment with antibiotic: 0 µg/mL
A. baumannii [4]; [20]
  Peptide MIC during treatment with antibiotic: 8 µg/mL
A. baumannii [4]; [21]
  Peptide MIC during treatment with antibiotic: 4 µg/mL
A. baumannii [4]; linezolid […] (Conc./MIC 1)
  Peptide MIC during treatment with antibiotic: 0 µg/mL
A. baumannii [4]; linezolid […] (Conc./MIC 1/2)
  Peptide MIC during treatment with antibiotic: 2 µg/mL
A. baumannii [4]; [14]
  Peptide MIC during treatment with antibiotic: 0.25 µg/mL
A. baumannii [4]; [15]
  Peptide MIC during treatment with antibiotic: 0 µg/mL
A. baumannii [4]; vancomycin […] (Conc./MIC 1/4)
  Peptide MIC during treatment with antibiotic: 0.5 µg/mL
A. baumannii [4]; vancomycin […] (Conc./MIC 1/8)
  Peptide MIC during treatment with antibiotic: 2 µg/mL
MDRAB 12035 [5]; [16]
  Peptide MIC during treatment with erythromycin: 4 µg/mL
MDRAB 12035 [5]; [17]
  Peptide MIC during treatment with erythromycin: 4 µg/mL
MDRAB 12035 [5]; [18]
  Peptide MIC during treatment with erythromycin: 4 µg/mL
MDRAB 12035 [5]; [19]
  Peptide MIC during treatment with erythromycin: 0 µg/mL
MDRAB 12035 [5]; [12]
  Peptide MIC during treatment with linezolid: 4 µg/mL
MDRAB 12035 [5]; [13]
  Peptide MIC during treatment with linezolid: 0 µg/mL
MDRAB 12035 [5]; linezolid […] (Conc./MIC 1/2)
  Peptide MIC during treatment with linezolid: 1 µg/mL
MDRAB 12035 [5]; linezolid […] (Conc./MIC 1/4)
  Peptide MIC during treatment with linezolid: 4 µg/mL
MDRAB 12035 [5]; [14]
  Peptide MIC during treatment with vancomycin: 2 µg/mL
MDRAB 12035 [5]; [15]
  Peptide MIC during treatment with vancomycin: 1 µg/mL
MDRAB 12035 [5]; vancomycin […] (Conc./MIC 1/4)
  Peptide MIC during treatment with vancomycin: 2 µg/mL
MDRAB 12035 [5]; vancomycin […] (Conc./MIC 1/8)
  Peptide MIC during treatment with vancomycin: 4 µg/mL
MDRAB 12036
  Minimal inhibitory concentration MIC: 32 µg/mL (≈ 13.5 µM)
